28 molecules from US20260297070A1, “CYCLIC [COMPOUND LEFT OUT] WRN INHIBITORS” (Nimbus Wadjet, Inc., priority 2023, published 2026) can be followed below.

T1 sequence (Q14191 with tags, fused parts or gaps L1074F limits assumed): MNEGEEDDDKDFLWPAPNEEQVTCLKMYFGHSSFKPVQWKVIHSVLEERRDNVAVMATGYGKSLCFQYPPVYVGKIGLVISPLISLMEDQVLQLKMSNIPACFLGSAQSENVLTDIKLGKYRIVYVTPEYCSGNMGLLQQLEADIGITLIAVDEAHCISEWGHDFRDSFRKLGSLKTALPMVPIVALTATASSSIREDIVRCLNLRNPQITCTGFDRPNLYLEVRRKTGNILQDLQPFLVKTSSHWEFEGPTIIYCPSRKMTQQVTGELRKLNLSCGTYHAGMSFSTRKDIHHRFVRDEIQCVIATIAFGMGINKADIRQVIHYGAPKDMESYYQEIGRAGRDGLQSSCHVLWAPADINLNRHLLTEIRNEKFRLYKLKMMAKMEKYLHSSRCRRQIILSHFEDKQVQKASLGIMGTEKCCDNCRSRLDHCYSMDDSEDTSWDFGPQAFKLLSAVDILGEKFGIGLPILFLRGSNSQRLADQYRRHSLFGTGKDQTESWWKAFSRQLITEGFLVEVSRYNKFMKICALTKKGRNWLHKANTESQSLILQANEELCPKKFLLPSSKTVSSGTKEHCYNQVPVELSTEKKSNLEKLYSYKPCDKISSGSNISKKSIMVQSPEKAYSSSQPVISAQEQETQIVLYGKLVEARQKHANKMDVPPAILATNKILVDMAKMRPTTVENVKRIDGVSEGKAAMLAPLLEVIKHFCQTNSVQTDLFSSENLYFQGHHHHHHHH

This assay concerns the target T1, human Werner helicase (WRN-BV08, Uniprot Q14191, amino acids 517-1235 with L1074F point mutation) (Homo sapiens, UniProt Q14191, L1074F).
T1 construct: Uniprot Q14191, amino acids 517-1235 with L1074F point mutation; TEV-cleavable 8×His (C, cleaved yes); made in house; host or cells: Sf9 insect cells (baculovirus)
The assay can be described thus: WRN (BV08) ADP-Glo Assay. Conditions: 0.15 nM WRN, 5 μM ATP, 0.1 nM DNA duplex, 15 min preincubation, 60 min at 25° C., pH 7.5, 1% DMSO; read-out: ADP-Glo_hWRN_IC50. Format: biochemical. Summed up: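 Percent inhibition was normalised to DMSO (max) and 20 μM NSC-617145 (min) controls from ADP-Glo luminescence, and IC50 values came from a four-parameter fit. The reaction ran 60 min at 25 °C with 0.15 nM WRN, 5 μM ATP and 0.1 nM duplex DNA.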
With `CC(C)(O)c1cc(CN(C(=O)C(OCC(F)F)c2ccc(-c3ccc(F)c(F)c3)cc2F)[C@@H]2C=CS(=O)(=O)C2)ccn1` (single isomer, unassigned) [I-813], the IC50 was less than 0.5 µM.
With `O=C([C@H]1CC[C@@H](C(F)(F)F)O1)N(Cc1ccncc1)C1C=CS(=O)(=O)C1` (mixture of isomers) [I-714, rac-(2R,5S)-N-(1,1-dioxo-2,3-dihydro-1lambda6-thiophen-3-yl)-N-[(pyridin-4-yl)methyl]-5-(trifluoromethyl)oxolane-2-carboxamide], the IC50 was greater than 50 µM.
In the case of `COc1nc(CN(C(=O)Cc2ccc(S(F)(F)(F)(F)F)cc2)C2C=CS(=O)(=O)C2)cc(N(C)C)n1` (stereo not shown) [I-634, N-{[6-(dimethylamino)-2-methoxypyrimidin-4-yl]methyl}-N-(1,1-dioxo-2,3-dihydro-1lambda6-thiophen-3-yl)-2-[4-(pentafluoro-lambda6-sulfanyl)phenyl]acetamide], the IC50 lay within 5 to 10 µM.
As for `COc1ccc(-c2ccc(CC(=O)N(Cc3ccncc3)C3C=CS(=O)(=O)C3)cc2)cc1` (stereo not shown) [I-555, N-(1,1-dioxo-2,3-dihydro-1lambda6-thiophen-3-yl)-2-{4′-methoxy-[1,1′-biphenyl]-4-yl}-N-[(pyridin-4-yl)methyl]acetamide], the IC50 is greater than 50 µM.
For the molecule `COc1cc(CN(C(=O)Cc2ccc(-c3ccc(F)cc3)cc2F)C2C=CS(=O)(=O)C2)ccn1` (stereo not shown) [I-87, 2-{3,4′-difluoro-[1,1′-biphenyl]-4-yl}-N-(1,1-dioxo-2,3-dihydro-1lambda6-thiophen-3-yl)-N-[(2-methoxypyridin-4-yl)methyl]acetamide], the IC50 lay in the range of 0.5 to 5 µM.
For `CCC(C)c1ccc(CC(=O)N(Cc2ccncc2)C2C=CS(=O)(=O)C2)cc1` (stereo not shown) [I-216, 2-[4-(butan-2-yl)phenyl]-N-(1,1-dioxo-2,3-dihydro-1lambda6-thiophen-3-yl)-N-[(pyridin-4-yl)methyl]acetamide], the IC50 fell in the range of 5 to 10 µM.
In the case of `COC(C(=O)N(Cc1ccnc(C(C)(C)O)c1)C1C=CS(=O)(=O)C1)c1ccc(S(F)(F)(F)(F)F)cc1` (single isomer, unassigned) [I-665, (2R*)-N-[(3R**)-1,1-dioxo-2,3-dihydro-1lambda6-thiophen-3-yl]-N-{[2-(2-hydroxypropan-2-yl)pyridin-4-yl]methyl}-2-methoxy-2-[4-(pentafluoro-lambda6-sulfanyl)phenyl]acetamide], the IC50 was 10 to 50 µM.
On to `O=C(Cc1ccc(-c2ccc(F)cc2)cc1F)N(Cc1ccncc1)C1C=CS(=O)(=O)C1` (stereo not shown) [I-115, 2-{3,4′-difluoro-[1,1′-biphenyl]-4-yl}-N-(1,1-dioxo-2,3-dihydro-1lambda6-thiophen-3-yl)-N-[(pyridin-4-yl)methyl]acetamide], for which the IC50 is 0.5 to 5 µM.
As for `CC(C)(O)c1cc(CN(C(=O)Cc2cc(-c3ccc(F)c(F)c3)sn2)[C@@H]2C=CS(=O)(=O)C2)ccn1` [I-825, 2-[5-(3,4-difluorophenyl)-1,2-thiazol-3-yl]-N-[(3R)-1,1-dioxo-2,3-dihydro-1lambda6-thiophen-3-yl]-N-{[2-(2-hydroxypropan-2-yl)pyridin-4-yl]methyl}acetamide], the IC50 was less than 0.5 µM.
With `O=C([C@H]1CC[C@@H](c2ccccc2)O1)N(Cc1ccncc1)C1C=CS(=O)(=O)C1` (mixture of isomers) [I-652, rac-(2R,5S)-N-(1,1-dioxo-2,3-dihydro-1lambda6-thiophen-3-yl)-5-phenyl-N-[(pyridin-4-yl)methyl]oxolane-2-carboxamide], the IC50 is greater than 50 µM.
Consider `CC(C)(O)c1cc(CN(C(=O)Cc2ncc(-c3ccc(F)c(F)c3)cn2)C2C=CS(=O)(=O)C2)ccn1` (stereo not shown) [I-116, 2-[5-(3,4-difluorophenyl)pyrimidin-2-yl]-N-(1,1-dioxo-2,3-dihydro-1lambda6-thiophen-3-yl)-N-{[2-(2-hydroxypropan-2-yl)pyridin-4-yl]methyl}acetamide], for which the IC50 fell in the range of 0.5 to 5 µM.
As to `CC(C)(C)c1ccc(CC(=O)N(Cc2ccncc2)C2C=CS(=O)(=O)C2)cc1` (stereo not shown) [I-310, 2-(4-tert-butylphenyl)-N-(1,1-dioxo-2,3-dihydro-1lambda6-thiophen-3-yl)-N-[(pyridin-4-yl)methyl]acetamide], the IC50 is 10 to 50 µM.
Next, `CC(C)OC(C(=O)N(Cc1ccnc(C(C)(C)O)c1)C1C=CS(=O)(=O)C1)c1ccc(-c2ccc(F)c(F)c2)cc1F` (stereo not shown) [I-167, N-(1,1-dioxo-2,3-dihydro-1lambda6-thiophen-3-yl)-N-{[2-(2-hydroxypropan-2-yl)pyridin-4-yl]methyl}-2-(propan-2-yloxy)-2-{3,3′,4′-trifluoro-[1,1′-biphenyl]-4-yl}acetamide]: 0.5 to 5 µM.
Regarding `CC(=O)N(C)C(C(=O)N(Cc1ccncc1)C1C=CS(=O)(=O)C1)c1ccc(-c2ccc(F)cc2)cc1` (single isomer, unassigned) [I-378], the IC50 is greater than 50 µM.
For the molecule `CNC(=O)C(C(=O)N(Cc1ccnc(OC)c1)[C@@H]1C=CS(=O)(=O)C1)c1ccc(-c2ccc(F)c(F)c2)cc1F` (single isomer, unassigned) [I-694, (2R*)-N′-[(3R)-1,1-dioxo-2,3-dihydro-1lambda6-thiophen-3-yl]-N′-[(2-methoxypyridin-4-yl)methyl]-N-methyl-2-{3,3′,4′-trifluoro-[1,1′-biphenyl]-4-yl}propanediamide], the IC50 is less than 0.5 µM.
Turning to `O=C(Cc1ccn(-c2ccccc2)n1)N(Cc1ccncc1)C1C=CS(=O)(=O)C1` (stereo not shown) [I-390, N-(1,1-dioxo-2,3-dihydro-1lambda6-thiophen-3-yl)-2-(1-phenyl-1H-pyrazol-3-yl)-N-[(pyridin-4-yl)methyl]acetamide], the IC50 is greater than 50 µM.
`CC(C(=O)N(Cc1ccnc(C(C)(C)O)c1)C1C=CS(=O)(=O)C1)n1cc(-c2ccc(C(F)(F)F)cc2)cn1` (single isomer, unassigned) [I-775, (2R*)-N-[(3R**)-1,1-dioxo-2,3-dihydro-1lambda6-thiophen-3-yl]-N-{[2-(2-hydroxypropan-2-yl)pyridin-4-yl]methyl}-2-{4-[4-(trifluoromethyl)phenyl]-1H-pyrazol-1-yl}propanamide]: the IC50 is 0.5 to 5 µM.
Consider `COc1cc(CN(C(=O)C(C)c2ccc(-n3cccc3)cc2)C2C=CS(=O)(=O)C2)ccn1` (stereo not shown) [I-212, N-(1,1-dioxo-2,3-dihydro-1lambda6-thiophen-3-yl)-N-[(2-methoxypyridin-4-yl)methyl]-2-[4-(1H-pyrrol-1-yl)phenyl]propanamide], for which the IC50 was 0.5 to 5 µM.
Regarding `O=C(Cc1ccc(-n2cccc2)cc1)N(Cc1ccc(C2CC2)cn1)C1C=CS(=O)(=O)C1` (stereo not shown) [I-285, N-[(5-cyclopropylpyridin-2-yl)methyl]-N-(1,1-dioxo-2,3-dihydro-1lambda6-thiophen-3-yl)-2-[4-(1H-pyrrol-1-yl)phenyl]acetamide], the IC50 lay within 5 to 10 µM.
For the molecule `O=C(Cc1ccc(S(F)(F)(F)(F)F)cc1)N(CCc1nc(C2CC2)cs1)C1C=CS(=O)(=O)C1` (stereo not shown) [I-629, N-[2-(4-cyclopropyl-1,3-thiazol-2-yl)ethyl]-N-(1,1-dioxo-2,3-dihydro-1lambda6-thiophen-3-yl)-2-[4-(pentafluoro-lambda6-sulfanyl)phenyl]acetamide], the IC50 is 0.5 to 5 µM.
As to `COc1cc(CN(C(=O)Cn2cc3cc(C(F)(F)F)ccc3n2)[C@@H]2C=CS(=O)(=O)C2)ccn1` [I-699, N-[(3R)-1,1-dioxo-2,3-dihydro-1lambda6-thiophen-3-yl]-N-[(2-methoxypyridin-4-yl)methyl]-2-[5-(trifluoromethyl)-2H-indazol-2-yl]acetamide], the IC50 lay within 0.5 to 5 µM.
As to `O=C(Cn1nnc(-c2ccccc2)n1)N(Cc1ccncc1)C1C=CS(=O)(=O)C1` (stereo not shown) [I-442, N-(1,1-dioxo-2,3-dihydro-1lambda6-thiophen-3-yl)-2-(5-phenyl-2H-1,2,3,4-tetrazol-2-yl)-N-[(pyridin-4-yl)methyl]acetamide], the IC50 was greater than 50 µM.
`O=C(Cn1cc(-c2ccccc2)cn1)N(Cc1ccncc1)C1C=CS(=O)(=O)C1` (single isomer, unassigned) [I-133]: the IC50 fell in the range of 0.5 to 5 µM.
As for `Cc1cccn1-c1ccc(CC(=O)N(Cc2nc3ccccc3s2)C2C=CS(=O)(=O)C2)c(F)c1` (stereo not shown) [I-73, N-[(1,3-benzothiazol-2-yl)methyl]-N-(1,1-dioxo-2,3-dihydro-1lambda6-thiophen-3-yl)-2-[2-fluoro-4-(2-methyl-1H-pyrrol-1-yl)phenyl]acetamide], the IC50 was less than 0.5 µM.
Then `O=C(C1C2CN(CC(F)(F)F)CC21)N(Cc1ccncc1)C1C=CS(=O)(=O)C1` (stereo not shown) [I-618, N-(1,1-dioxo-2,3-dihydro-1lambda6-thiophen-3-yl)-N-[(pyridin-4-yl)methyl]-3-(2,2,2-trifluoroethyl)-3-azabicyclo[3.1.0]hexane-6-carboxamide], with greater than 50 µM; and `CNC(=O)C(C(=O)N(Cc1ccnc(C(C)(C)O)c1)C1C=CS(=O)(=O)C1)c1ccc(-c2ccc(F)c(F)c2)cc1F` (single isomer, unassigned) [I-689, (2R**)-N′-[(3R*)-1,1-dioxo-2,3-dihydro-1lambda6-thiophen-3-yl]-N′-{[2-(2-hydroxypropan-2-yl)pyridin-4-yl]methyl}-N-methyl-2-{3,3′,4′-trifluoro-[1,1′-biphenyl]-4-yl}propanediamide], with less than 0.5 µM; and `O=C(Cn1ncc2ccc(C(F)(F)F)cc21)N(Cc1ccncc1)C1C=CS(=O)(=O)C1` (stereo not shown) [I-455, N-(1,1-dioxo-2,3-dihydro-1lambda6-thiophen-3-yl)-N-[(pyridin-4-yl)methyl]-2-[6-(trifluoromethyl)-1H-indazol-1-yl]acetamide], with greater than 50 µM.
Regarding `Cc1cccn1-c1ccc(CC(=O)N(Cc2ccnc3c2CCC3(C)O)C2C=CS(=O)(=O)C2)c(F)c1` (stereo not shown) [I-78, N-(1,1-dioxo-2,3-dihydro-1lambda6-thiophen-3-yl)-2-[2-fluoro-4-(2-methyl-1H-pyrrol-1-yl)phenyl]-N-({7-hydroxy-7-methyl-5H,6H,7H-cyclopenta[b]pyridin-4-yl}methyl)acetamide], the IC50 was less than 0.5 µM.
